Assay results from patent US8192962B2, “Processes for detecting toxic substances” (Daikin Industries, Ltd., priority 2001, dated 2012).

Tested on: Stress protein genes
Assay: DNA chip mRNA expression in yeast, stress protein genes (Table 6)
Type: cell-based, Saccharomyces cerevisiae S288C
Experimental: Yeast (Saccharomyces cerevisiae S288C (α SUC2mal mel gap2 CUP1)) were incubated at 25° C. on YPD medium (yeast extract 1%, polypepton 2%, glucose 2%). One of toxic chemical substances was added to the cells at logarithmic growth phase, and the cells were further incubated for two hours. Cells were cultured without any chemical substance in the same condition, and were used as control. Concentrations of the chemical substances were defined to inhibit the growth of the yeast but not lead to death.
After completion of the incubation, the culture was centrifuged to collect the cells. To the cells, sodium acetate buffer (50 mM sodium acetate, 10 mM EDTA, 1% SDS) was added, and the mixture was shaken at 65° C. for five minutes, followed by returning to room temperature, and obtaining the supernatant, of which the procedures were repeated two times. To the supernatant, ½ amount of a solution of phenol/chloroform was added, and the mixture was centrifuged to give a supernatant, which was added with an equal amount of chloroform, and the mixture was centrifuged to give a supernatant. To the supernatant, an equal amount of isopropanol containing 0.3 M sodium acetate was added, and the mixture was allowed to stand at room temperature for 30 minutes, after which the mixture was centrifuged to give a sediment of the whole RNAs. Seventy % ethanol was added to the sediment, and the mixture was again centrifuged to give a sediment, which was then dried and dissolved in water. mRNA was isolated from the whole RNAs as followings. In view of the fact that a poly A chain is attached to the 3′ terminus of mRNA, a polynucleotide having a poly T structure which was immobilized on the surface of latex beads was used to trap the mRNA, and then the mRNA was washed and eluted with spine column (Oligotex-dT30<Super>mRNA Purification Kit, Takara). Reverse transcription of the mRNA was conducted with a reverse transcriptase (Super Script II Reverse Transcriptase; catalogue No. 18064-014, GibcoBRL) using fluorescence-labeled nucleotides to give cDNAs that were introduced with Cy3-dUTP or Cy5-dUTP during the reverse transcription.
The labeled cDNAs were dissolved in TE buffer (10mM Tris-HCl/1 mM EDTA, pH8.0), and the solution was dropped on the DNA chip containing the whole genes of yeast (DNA Chip Research Inc. Japan) so that the cDNAs were hybridized on the DNA chip at 65° C. for over 12 hours. The fluoresces intensity of the DNA chip was read with a scanner, and the ratio relative to the fluorescence intensity resulting from the absence of chemical substance was estimated as the following, which is shown in Tables 1 to 9: […]

[Cl][Cd][Cl] [(2), CdCl2]
The level of expressed mRNA in the presence of chemical substance/The level of expressed mRNA in the absence of chemical substance (yeast gene YAL005C): 1.6 | The level of expressed mRNA in the presence of chemical substance/The level of expressed mRNA in the absence of chemical substance (yeast gene YAL015C): 1.1 | The level of expressed mRNA in the presence of chemical substance/The level of expressed mRNA in the absence of chemical substance (yeast gene YBL075C): 4.3 | The level of expressed mRNA in the presence of chemical substance/The level of expressed mRNA in the absence of chemical substance (yeast gene YBL093C): 2.0 | The level of expressed mRNA in the presence of chemical substance/The level of expressed mRNA in the absence of chemical substance (yeast gene YBR044C): 1.4 | The level of expressed mRNA in the presence of chemical substance/The level of expressed mRNA in the absence of chemical substance (yeast gene YBR054W): 1.8 | The level of expressed mRNA in the presence of chemical substance/The level of expressed mRNA in the absence of chemical substance (yeast gene YBR067C): 2.5 | The level of expressed mRNA in the presence of chemical substance/The level of expressed mRNA in the absence of chemical substance (yeast gene YBR072W): 17.4 | The level of expressed mRNA in the presence of chemical substance/The level of expressed mRNA in the absence of chemical substance (yeast gene YBR126C): 1.9 | The level of expressed mRNA in the presence of chemical substance/The level of expressed mRNA in the absence of chemical substance (yeast gene YBR169C): 2.1 | The level of expressed mRNA in the presence of chemical substance/The level of expressed mRNA in the absence of chemical substance (yeast gene YCL035C): 2.3 | The level of expressed mRNA in the presence of chemical substance/The level of expressed mRNA in the absence of chemical substance (yeast gene YCR021C): 1.4 | The level of expressed mRNA in the presence of chemical substance/The level of expressed mRNA in the absence of chemical substance (yeast gene YCR060W): 0.7 | The level of expressed mRNA in the presence of chemical substance/The level of expressed mRNA in the absence of chemical substance (yeast gene YCR083W): 2.8 | The level of expressed mRNA in the presence of chemical substance/The level of expressed mRNA in the absence of chemical substance (yeast gene YDL022W): 2.6 | The level of expressed mRNA in the presence of chemical substance/The level of expressed mRNA in the absence of chemical substance (yeast gene YDL025C): 5.0 | The level of expressed mRNA in the presence of chemical substance/The level of expressed mRNA in the absence of chemical substance (yeast gene YDR033W): 1.3 | The level of expressed mRNA in the presence of chemical substance/The level of expressed mRNA in the absence of chemical substance (yeast gene YDR077W): 1.0 | The level of expressed mRNA in the presence of chemical substance/The level of expressed mRNA in the absence of chemical substance (yeast gene YDR098C): 1.4 | The level of expressed mRNA in the presence of chemical substance/The level of expressed mRNA in the absence of chemical substance (yeast gene YDR155C): 1.5 | The level of expressed mRNA in the presence of chemical substance/The level of expressed mRNA in the absence of chemical substance (yeast gene YDR258C): 2.3 | The level of expressed mRNA in the presence of chemical substance/The level of expressed mRNA in the absence of chemical substance (yeast gene YDR293C): 0.9 | The level of expressed mRNA in the presence of chemical substance/The level of expressed mRNA in the absence of chemical substance (yeast gene YDR436W): 0.9 | The level of expressed mRNA in the presence of chemical substance/The level of expressed mRNA in the absence of chemical substance (yeast gene YDR513W): 2.5 | The level of expressed mRNA in the presence of chemical substance/The level of expressed mRNA in the absence of chemical substance (yeast gene YDR519W): 3.2 | The level of expressed mRNA in the presence of chemical substance/The level of expressed mRNA in the absence of chemical substance (yeast gene YEL030W): 0.9 | The level of expressed mRNA in the presence of chemical substance/The level of expressed mRNA in the absence of chemical substance (yeast gene YEL039C): 0.7 | The level of expressed mRNA in the presence of chemical substance/The level of expressed mRNA in the absence of chemical substance (yeast gene YER042W): 2.2 | The level of expressed mRNA in the presence of chemical substance/The level of expressed mRNA in the absence of chemical substance (yeast gene YER057C): 2.0 | The level of expressed mRNA in the presence of chemical substance/The level of expressed mRNA in the absence of chemical substance (yeast gene YER103W): 2.1 | The level of expressed mRNA in the presence of chemical substance/The level of expressed mRNA in the absence of chemical substance (yeast gene YER125W): 1.1 | The level of expressed mRNA in the presence of chemical substance/The level of expressed mRNA in the absence of chemical substance (yeast gene YFL014W): 5.1 | The level of expressed mRNA in the presence of chemical substance/The level of expressed mRNA in the absence of chemical substance (yeast gene YFL016C): 1.0 | The level of expressed mRNA in the presence of chemical substance/The level of expressed mRNA in the absence of chemical substance (yeast gene YFL020C): 1.1 | The level of expressed mRNA in the presence of chemical substance/The level of expressed mRNA in the absence of chemical substance (yeast gene YFR052W): 1.6 | The level of expressed mRNA in the presence of chemical substance/The level of expressed mRNA in the absence of chemical substance (yeast gene YGL073W): 2.1 | The level of expressed mRNA in the presence of chemical substance/The level of expressed mRNA in the absence of chemical substance (yeast gene YGL115W): 0.6 | The level of expressed mRNA in the presence of chemical substance/The level of expressed mRNA in the absence of chemical substance (yeast gene YGL181W): 0.9 | The level of expressed mRNA in the presence of chemical substance/The level of expressed mRNA in the absence of chemical substance (yeast gene YGR088W): 1.2 | The level of expressed mRNA in the presence of chemical substance/The level of expressed mRNA in the absence of chemical substance (yeast gene YHL028W): 0.8 | The level of expressed mRNA in the presence of chemical substance/The level of expressed mRNA in the absence of chemical substance (yeast gene YHL046C): 1.7 | The level of expressed mRNA in the presence of chemical substance/The level of expressed mRNA in the absence of chemical substance (yeast gene YHR030C): 0.8 | The level of expressed mRNA in the presence of chemical substance/The level of expressed mRNA in the absence of chemical substance (yeast gene YHR057C): 1.2 | The level of expressed mRNA in the presence of chemical substance/The level of expressed mRNA in the absence of chemical substance (yeast gene YHR104W): 4.1 | The level of expressed mRNA in the presence of chemical substance/The level of expressed mRNA in the absence of chemical substance (yeast gene YIL011W): 0.5
